Reference: patent EP4813977A1, “NOVEL COMPOUND AND USE THEREOF” (Protier Biotech Inc., priority 2023, dated 2025)

Tests used:
Cereblon (CRBN) protein = molecular target: T1, Cereblon (CRBN) protein (Homo sapiens, UniProt Q96SW2); test: CRBN binding affinity, E3scan (Eurofins) competition binding with qPCR read-out; conditions: lower % Ctrl = stronger binding, DMSO = 100 % Ctrl, lenalidomide = 0 % Ctrl
T1 construct: purchased Eurofins (E3scan service); host or cells: HEK-293
Description: Specifically, CRBN was produced using a HEK-293 cell line and labeled with DNA for qPCR detection. Streptavidin-coated magnetic beads were treated with a biotinylated small-molecule ligand at room temperature for 30 minutes to generate an affinity resin for E3scan analysis. The liganded beads were blocked with excess biotin and washed with a blocking buffer (SeaBlock (Pierce), 1 % BSA, 0.05 % Tween 20, 1 mM DTT) to remove unbound ligands and prevent non-specific binding. […] The test compound was prepared as a 100× stock in 100 % DMSO and diluted directly into the assay solution. All reactions were performed in a polypropylene 384-well plate with a final reaction volume of 0.02 mL. […] The CRBN concentration in the eluate was measured by qPCR. […] A lower '% Ctrl' indicates a stronger binding affinity. […] ((test compound signal−positive control signal)/(negative control signal−positive control signal)) × 100 [formula]

[1] = tested on: T-cell leukemia cell line Jurkat; test: Cell viability assay (Cell Counting Kit-8), Jurkat; assay type: cell-based; conditions: Homo sapiens, 72 hours, CCK-8, absorbance 450 nm
Description: (§1) To evaluate the cytotoxicity of the compounds synthesized in the Preparation Examples against cancer cells, a cell viability assay following treatment with the synthesized compounds was performed using a T-cell leukemia cell line Jurkat (KCLB, Cat# 40152), a human acute monocytic leukemia cell line MV-4-11 (ATCC, Cat# CRL-9591), and a human multiple myeloma cell line MM.1S (ATCC, Cat# CRL-2974).
(§2) As a culture medium for the cell lines, an RPMI medium containing 10 % heat-inactivated FBS and 1 % penicillin/streptomycin (P/S) antibiotics was used. The culture medium was stored refrigerated and warmed in a 37 °C water bath before use. Each cell line was used for the test after a stabilization period of at least 2 weeks after thawing, and cell culture was performed based on information provided by the cell line manufacturer regarding the thawing and subculture conditions.
(§3) The Jurkat, MV-4-11, or MM.1S cell line was seeded in a 96-well plate at a density of 1 × 10^4 cells/well and incubated in a 37 °C CO2 incubator overnight. After incubation, a prepared test compound was applied to each cell line, and the cells were incubated in a 37 °C CO2 incubator for 72 hours. After 72 hours of incubation, a Cell Counting Kit-8 (Dojindo, Cat# CK04-20) reagent was added, and the cells were incubated in a 37 °C CO2 incubator. Then, the absorbance was measured at 450 nm using a SpectraMax M3 Microplate Reader (N=2, duplicate measurement). The evaluation concentrations for evaluating the cytotoxicity of the compounds were 10 points: 100 µM, 20 µM, 4 µM, 0.8 µM, 0.16 µM, 0.032 µM, 0.0064 µM, 0.00128 µM, 0.000256 µM, and 0 µM, and the test was performed at 2 wells/concentration point (n=2). A GI50 was derived using a GraphPad Prism program.

[2] = tested on: human multiple myeloma cell line MM.1S; test: Cell viability assay (Cell Counting Kit-8), MM.1S; assay type: cell-based; conditions: MM1.S, 72 hours, CCK-8, absorbance 450 nm
Description: as §1, §2, §3

| Compound | CRBN binding affinity (% Ctrl @ 5µM) (Cereblon (CRBN) protein) | GI50 [1] [µM] | GI50 [2] [µM] |
| --- | --- | --- | --- |
| O=C1CCC(N2Cc3cc(C(=O)c4ccccc4)ccc3C2=O)C(=O)N1 (stereo not drawn) [Compound 1, 3-(5-benzoyl-1-oxoisoindolin-2-yl)piperidine-2,6-dione] | C (1 ≤ % Ctrl' < 10) | 0.1 to 1 | – |
| O=C1CCC(N2Cc3nc(C(=O)c4ccccc4)ccc3C2=O)C(=O)N1 (stereo not drawn) [Compound 5, 3-(2-benzoyl-5-oxo-5,7-dihydro-6H-pyrrolo[3.4-b]pyridin-6-yl)piperidine-2,6-dione] | C (1 ≤ % Ctrl' < 10) | – | – |
| O=C1CCC(N2Cc3cc(C(=O)n4ncc5ccccc54)ccc3C2=O)C(=O)N1 (stereo not drawn) [Compound 6, 3-(5-(1H-indazole-1-carbonyl)-1-oxoisoindolin-2-yl)piperidine-2,6-dione] | A (0 ≤ '% Ctrl' < 0.1) | – | – |
| O=C1CCC(N2Cc3cc(C(=O)N4CCCC4)ccc3C2=O)C(=O)N1 (stereo not drawn) [Compound 7, 3-(1-oxo-5-(pyrrolidine-1-carbonyl)isoindolin-2-yl)piperidine-2,6-dione] | A (0 ≤ '% Ctrl' < 0.1) | – | – |
| O=C1CCC(N2Cc3cc(C(=O)c4c[nH]c5ccc(Cl)cc45)ccc3C2=O)C(=O)N1 (stereo not drawn) [Compound 8, 3-(5-(5-chloro-1H-indole-3-carbonyl)-1-oxoisoindolin-2-yl)piperidine-2,6-dione] | – | ≤ 0.1 | – |
| O=C1CCC(N2Cc3cc(C(=O)c4cc5cc(F)ccc5[nH]4)ccc3C2=O)C(=O)N1 (stereo not drawn) [Compound 9, 3-(5-(5-fluoro-1H-indole-2-carbonyl)-1-oxoisoindolin-2-yl)piperidine-2,6-dione] | – | ≤ 0.1 | ≤ 0.1 |
| O=C1CCC(N2C(=O)c3ccc(C(=O)c4cc5ccccc5[nH]4)cc3C2=O)C(=O)N1 (stereo not drawn) [Compound 10, 2-(2,6-dioxopiperidin-3-yl)-5-(1H-indole-2-carbonyl)isoindoline-1,3-dione] | C (1 ≤ % Ctrl' < 10) | 1 to 10 | – |
| O=C1CCC(N2Cc3cc(C(=O)C4CCN(Cc5ccccc5)CC4)ccc3C2=O)C(=O)N1 (stereo not drawn) [Compound 11, 3-(5-(1-benzylpiperidine-4-carbonyl)-1-ox.oisoindolin-2-yl)piperidine-2,6-dione] | A (0 ≤ '% Ctrl' < 0.1) | – | – |
| O=C1CCC(N2Cc3cc(C(=O)c4ccccn4)ccc3C2=O)C(=O)N1 (stereo not drawn) [Compound 12, 3-(1-oxo-5-picolinoylisoindelin-2-yi)piperidine-2,6-dione] | A (0 ≤ '% Ctrl' < 0.1) | – | – |
| O=C1CCC(N2Cc3cc(C(=O)c4cccc(Nc5ccccc5)c4)ccc3C2=O)C(=O)N1 (stereo not drawn) [Compound 16, 3-(1-oxo-5-(3-(phenylamino)benzoyl)isoindolin-2-yl)piperidine-2,6-dione] | A (0 ≤ '% Ctrl' < 0.1) | 1 to 10 | – |
| O=C1CCC(N2Cc3cc(C(=O)c4c[nH]c5ccc(-c6ccccc6)cc45)ccc3C2=O)C(=O)N1 (stereo not drawn) [Compound 24, 3-(1-oxo-5-(5-phenyl-1H-indole-3-carbonyl)isoindolin-2-yl)piperidine-2,6-dione] | D (10 ≤ '% Ctrl' < 35) | – | – |
| O=C1CCC(N2Cc3cc(C(=O)c4cn(-c5ccccc5)c5ccc(-c6ccccc6)cc45)ccc3C2=O)C(=O)N1 (stereo not drawn) [Compound 25, 3-(5-(1,5-diphenyl-1H-indole-3-carbonyl)-1-oxoisoindolin-2-yl)piperidine-2,6-dione] | D (10 ≤ '% Ctrl' < 35) | – | – |
| O=C1CCC(N2Cc3cc(C(=O)c4cccc(-c5ccccc5)c4)ccc3C2=O)C(=O)N1 (stereo not drawn) [Compound 26, 3-(5-([1,1'-biphenyl]-3-carbonyl)-1-oxoisoindolin-2-yl)piperidine-2,6-dione] | A (0 ≤ '% Ctrl' < 0.1) | 1 to 10 | – |
| O=C1CCC(N2Cc3cc(C(=O)c4ccc(-c5ccccc5)[nH]4)ccc3C2=O)C(=O)N1 (stereo not drawn) [Compound 28, 3-(1-oxo-5-(5-phenyl-1H-pyrrole-2-carbonyl)isoindolin-2-yl)piperidine-2,6-dione] | C (1 ≤ % Ctrl' < 10) | 0.1 to 1 | – |
| O=C1CCC(N2Cc3cc(C(=O)c4cc(-c5ccccc5)cs4)ccc3C2=O)C(=O)N1 (stereo not drawn) [Compound 30, 3-(1-oxo-5-(4-phenylthiophene-2-carbonyl)isoindolin-2-yl)piperidine-2,6-dione] | A (0 ≤ '% Ctrl' < 0.1) | 0.1 to 1 | – |
| O=C1CCC(N2Cc3cc(C(=O)c4cn(Cc5ccccc5)c5ccccc45)ccc3C2=O)C(=O)N1 (stereo not drawn) [Compound 32, 3-(5-(1-benzyl-1H-indole-3-carbonyl)-1-oxoisoindolin-2-yl)piperidine-2.6-dione] | – | 0.1 to 1 | – |

| Compound | CRBN binding affinity (% Ctrl @ 5µM) (Cereblon (CRBN) protein) | GI50 [1] [µM] | GI50 [2] [µM] |
| --- | --- | --- | --- |
| O=C1CCC(N2Cc3cc(C(=O)N4Cc5ccccc5C4)ccc3C2=O)C(=O)N1 (stereo not drawn) [Compound 36, 3-(5-(isoindoline-2-carbonyl)-1-oxoisoindolin-2-yl)piperidine-2,6-dione] | A (0 ≤ '% Ctrl' < 0.1) | ≤ 0.1 | – |
| O=C1CCC(N2Cc3cc(C(=O)C4CCCC4)ccc3C2=O)C(=O)N1 (stereo not drawn) [Compound 39, 3-(5-(cyclopentanecarbonyl)-1-oxoisoindolin-2-yl)piperidine-2,6-dione] | – | 1 to 10 | – |
| O=C1CCC(N2Cc3cc(C(=O)c4ccc(F)cc4)ccc3C2=O)C(=O)N1 (stereo not drawn) [Compound 40, 3-(5-(4-fluorobenzoyl)-1-oxoisoindolin-2-yl)piperidine-2,6-dione] | – | 0.1 to 1 | – |
| O=C1CCC(N2Cc3cc(C(=O)c4ccc(N5CCCCC5)cc4)ccc3C2=O)C(=O)N1 (stereo not drawn) [Compound 41, 3-(1-oxo-5-(4-(piperidin-1-yl)benzoyl)isoindolin-2-yl)piperidine-2,6-dione] | – | 0.1 to 1 | – |
| O=C1CCC(N2Cc3cc(C(=O)c4cccc5ccccc45)ccc3C2=O)C(=O)N1 (stereo not drawn) [Compound 43, 3-(5-(1-naphthoyl)-1-oxoisoindolin-2-yl)piperidine-2,6-dione] | – | 1 to 10 | – |
| O=C1CCC(N2Cc3cc(C(=O)c4ccc(OC(F)(F)F)cc4)ccc3C2=O)C(=O)N1 (stereo not drawn) [Compound 45, 3-(1-oxo-5-(4-(trifluoromethoxy)benzoyl)isoindolin-2-yl)piperidine-2,6-dione] | – | 0.1 to 1 | – |
| O=C1CCC(N2Cc3cc(C(=O)c4ccc(Cl)cc4)ccc3C2=O)C(=O)N1 (stereo not drawn) [Compound 48, 3-(5-(4-chlorobenzoyl)-1-oxoisoindolin-2-yl)piperidine-2,6-dione] | – | 0.1 to 1 | – |
| O=C1CCC(N2Cc3cc(C(=O)c4ccc(C(F)(F)F)cc4)ccc3C2=O)C(=O)N1 (stereo not drawn) [Compound 50, 3-(1-oxo-5-(4-(trifluoromethyl)benzoyl)isoindolin-2-yl)piperidine-2,6-dione] | – | 0.1 to 1 | – |
| COc1ccc(C(=O)c2ccc3c(c2)CN(C2CCC(=O)NC2=O)C3=O)cc1 (stereo not drawn) [Compound 51, 3-(5-(4-methoxybenzoyl)-1-oxoisoindolin-2-yl)piperidine-2,6-dione] | – | 0.1 to 1 | – |
| O=C1CCC(N2Cc3cc(C(=O)c4ccc(OCc5ccccc5)cc4)ccc3C2=O)C(=O)N1 (stereo not drawn) [Compound 53, 3-(5-(4-(benzyloxy)benzoyl)-1-oxoisoindolin-2-yl)piperidine-2,6-dione] | – | 0.1 to 1 | – |
| Cc1ccc(C(=O)c2ccc3c(c2)CN(C2CCC(=O)NC2=O)C3=O)cc1 (stereo not drawn) [Compound 54, 3-(5-(4-methylbenzoyl)-1-oxoisoindolin-2-yl)piperidine-2,6-dione] | – | 0.1 to 1 | – |
| Cc1cccc(C(=O)c2ccc3c(c2)CN(C2CCC(=O)NC2=O)C3=O)c1 (stereo not drawn) [Compound 61, 3-(5-(3-methylbenzoyl)-1-oxoisoindolin-2-yl)piperidine-2,6-dione] | – | ≤ 0.1 | – |
| Nc1ccc(C(=O)c2ccc3c(c2)CN(C2CCC(=O)NC2=O)C3=O)cc1 (stereo not drawn) [Compound 64, 3-(5-(4-aminobenzoyl)-1-oxoisoindolin-2-yl)piperidine-2,6-dione] | – | 0.1 to 1 | – |
| O=C1CCC(N2Cc3cc(C(=O)c4ccc[nH]4)ccc3C2=O)C(=O)N1 (stereo not drawn) [Compound 73, 3-(1-oxo-5-(1H-pyrrole-2-carbonyl)isoindolin-2-yl)piperidine-2,6-dione] | – | ≤ 0.1 | – |
| O=C1CCC(N2Cc3cc(C(=O)c4ccc5ncsc5c4)ccc3C2=O)C(=O)N1 (stereo not drawn) [Compound 76, 3-(5-(benzo[d]thiazole-6-carbonyl)-1-oxoisoindolin-2-yl)piperidine-2,6-dione] | – | ≤ 0.1 | – |
